Results reported in patent US20050014787A1, “5-amidino-2-hydroxybenzenesulfonamide derivatives medicinal compoistions containing the same medicinal use thereof and intermediates in the production thereof” (priority 2001, published 2005).

Key:
[1] = biological target: T1, human activated blood coagulation factor X (Homo sapiens, UniProt P00742); assay: Measurement of inhibitory activity for activated blood coagulation factor X (S-2222 chromogenic substrate); format: biochemical; settings: S-2222 substrate, pH 8.4, 10 minutes at 37° C., absorbance 405 nm
T1 construct: purchased Calbiochem
Method: Measurement of inhibitory activity for activated blood coagulation factor X
(§1) 2.5 μL of a dimethylsulfoxide solution of a test compound, 187.5 μL of 100 mM tris-200 mM NaCl buffer (pH 8.4) and 50 μL of 1 mM S-2222 (Daiichi Pure Chemicals) aqueous solution were poured into 96 well microplate. Then 10 μL of 0.6 U/mL human activated blood coagulation factor X (Calbiochem) in gelatin-glycine buffer was added and the mixture was incubated for 10 minutes at 37° C. The reaction was terminated with the addition of 50 μL of 60% acetic acid and absorbance (405 nm) was measured by a microplate reader (SPECTRAmax250, Molecular Devices).
(§2) The group with 2.5 μL of the dimethylsulfoxide solution instead of the test compound solution was defined as the control, and the group with 10 μL of the gelatin-glycine buffer solution instead of human activated blood coagulation factor X was defined as the blank. The concentration of a test compound that inhibited the absorbance of control by 50% (IC50) was obtained, and this value was used as the index of inhibitory activity for activated blood coagulation factor X. Results were shown as Table 1.

human thrombin = biological target: T2, human thrombin (Homo sapiens, UniProt P00734); assay: Measurement of inhibitory activity for thrombin (S-2238 chromogenic substrate); format: biochemical; settings: S-2238 substrate, pH 8.4, 10 minutes at 37° C., absorbance 405 nm
T2 construct: human thrombin (Sigma Chemical Company); purchased Sigma Chemical Company
Method: Measurement of inhibitory activity for thrombin
as §1, with “S-2238” for “S-2222”, “2.0” for “0.6”, “thrombin (Sigma Chemical Company)” for “activated blood coagulation factor X (Calbiochem)”
as §2, with “thrombin” for “activated blood coagulation factor X”, “thrombin.” for “activated blood coagulation factor X. Results were shown as Table 1.”

T1 sequence (P00742 235-488 limits assumed): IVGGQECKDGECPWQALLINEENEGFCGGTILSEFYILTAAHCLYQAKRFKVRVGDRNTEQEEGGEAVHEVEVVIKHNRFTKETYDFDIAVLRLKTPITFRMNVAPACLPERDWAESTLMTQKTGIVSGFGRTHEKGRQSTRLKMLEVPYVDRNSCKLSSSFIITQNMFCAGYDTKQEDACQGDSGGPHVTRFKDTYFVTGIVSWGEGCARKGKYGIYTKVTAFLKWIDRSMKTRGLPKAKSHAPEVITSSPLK
T1 sequence (P00742 41-179 partner limits assumed): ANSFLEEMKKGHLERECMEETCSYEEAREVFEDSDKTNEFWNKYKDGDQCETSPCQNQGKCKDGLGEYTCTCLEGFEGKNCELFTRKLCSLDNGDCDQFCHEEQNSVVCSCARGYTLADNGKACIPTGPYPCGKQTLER

IC50 [1] [nM] | IC50 (human thrombin) [nM] | SMILES
3.8 | – | N=C(N)c1ccc(O)c(S(=O)(=O)NCCc2ccc(-c3ccccc3S(N)(=O)=O)cc2)c1 [Compound 15, 5-Carbamimidoyl-2-hydroxy-N-[2-(2′-sulfamoylbiphenyl-4-yl)-ethyl]benzenesulfnamide]
51 | 27000 | CC(C)c1ccc(CCN(CC(=O)N2CCOCC2)S(=O)(=O)c2cc(C(=N)N)ccc2O)cc1 [Compound 14, 5-Carbamimidoyl-2-hydroxy-N-[2-(4-isopropylphenyl)ethyl]-N-(2-morpholin-4-yl-2-oxoethyl)benzenesulfonamide]
160 | 26000 | CC(C)c1ccc(CCN(C)S(=O)(=O)c2cc(C(=N)N)ccc2O)cc1 [Compound 17, 5-Carbamimidoyl-2-hydroxy-N-[2-(4-isopropylphenyl)ethyl]-N-methylbenzenesulfonamide]
